Converted amounts (≈) assume the structure as drawn.
Tests used:
Escherichia coli [1] = experiment: Antibacterial activity against Escherichia coli (vogel)
[2] = target: DNA gyrase (Escherichia coli) (UniProt P0AES6+P0AES4)
Pseudomonas aeruginosa = experiment: Antibacterial activity against Pseudomonas aeruginosa (UI-18)
Streptococcus pneumoniae = experiment: Antibacterial activity against Streptococcus pneumoniae (SV-1)
Staphylococcus aureus = experiment: Antibacterial activity against Staphylococcus aureus (H228)
Escherichia coli [3] = experiment: Antibacterial activity against Escherichia coli (H560)
Klebsiella pneumoniae = experiment: Antibacterial activity against Klebsiella pneumonia (MGH-2)

| Structure (SMILES) | MIC (Escherichia coli [1]) | gyrase cleavage conc [2] | MIC (Pseudomonas aeruginosa) | MIC (Streptococcus pneumoniae) | MIC (Staphylococcus aureus) | MIC (Escherichia coli [3]) | MIC (Klebsiella pneumoniae) |
| --- | --- | --- | --- | --- | --- | --- | --- |
| CCn1cc(C(=O)O)c(=O)c2cc(F)c(N3CCSCC3)cc21 | 0.1 µg/mL (≈ 0.297 µM) | 5 µg/mL | 0.8 µg/mL (≈ 2.38 µM) | 12.5 µg/mL (≈ 37.2 µM) | 0.006 µg/mL (≈ 0.0178 µM) | 0.1 µg/mL (≈ 0.297 µM) | 0.2 µg/mL (≈ 0.595 µM) |
| CCn1cc(C(=O)O)c(=O)c2cc(F)c(N3CCC(N4CCN(C)CC4)CC3)cc21 | 3.1 µg/mL (≈ 7.44 µM) | 50 µg/mL | 50 µg/mL (≈ 120 µM) | 6.3 µg/mL (≈ 15.1 µM) | 1.6 µg/mL (≈ 3.84 µM) | 12.5 µg/mL (≈ 30 µM) | 12.5 µg/mL (≈ 30 µM) |
| CCn1cc(C(=O)O)c(=O)c2cc(F)c(N3CCNCC3)cc21 | – | 1 µg/mL | – | – | – | – | – |
| CCn1cc(C(=O)O)c(=O)c2cc([N+](=O)[O-])ccc21 | 12.5 µg/mL (≈ 47.7 µM) | > 100 µg/mL | > 100 µg/mL | 100 µg/mL (≈ 381 µM) | > 100 µg/mL | 50 µg/mL (≈ 191 µM) | 12.5 µg/mL (≈ 47.7 µM) |
| CCn1cc(C(=O)O)c(=O)c2cc(F)c(N3CCC(C(F)(F)F)CC3)cc21 | 6.3 µg/mL (≈ 16.3 µM) | 5 µg/mL | > 100 µg/mL | 6.3 µg/mL (≈ 16.3 µM) | 0.1 µg/mL (≈ 0.259 µM) | 6.3 µg/mL (≈ 16.3 µM) | > 100 µg/mL |
| CCn1cc(C(=O)O)c(=O)c2c(N)nc(N3CCCC3)nc21 | 100 µg/mL (≈ 330 µM) | 100 µg/mL | > 100 µg/mL | 25 µg/mL (≈ 82.4 µM) | 100 µg/mL (≈ 330 µM) | 100 µg/mL (≈ 330 µM) | > 100 µg/mL |
| CCn1cc(C(=O)O)c(=O)c2cc(F)c(N3CCSC3)cc21 | 0.2 µg/mL (≈ 0.62 µM) | 5 µg/mL | 3.1 µg/mL (≈ 9.62 µM) | 12.5 µg/mL (≈ 38.8 µM) | 0.2 µg/mL (≈ 0.62 µM) | 0.2 µg/mL (≈ 0.62 µM) | 0.4 µg/mL (≈ 1.24 µM) |
| CCn1cc(C(=O)O)c(=O)c2cc([N+](=O)[O-])c(C)nc21 | 25 µg/mL (≈ 90.2 µM) | 50 µg/mL | > 100 µg/mL | > 100 µg/mL | 25 µg/mL (≈ 90.2 µM) | 50 µg/mL (≈ 180 µM) | 50 µg/mL (≈ 180 µM) |
| CCn1cc(C(=O)O)c(=O)c2cc(F)c(N3CCN(CCN)CC3)cc21 | 25 µg/mL (≈ 69 µM) | 10 µg/mL | 50 µg/mL (≈ 138 µM) | 50 µg/mL (≈ 138 µM) | 12.5 µg/mL (≈ 34.5 µM) | 25 µg/mL (≈ 69 µM) | 50 µg/mL (≈ 138 µM) |
| CCn1cc(C(=O)O)c(=O)c2ccc(N3CCN(CC#N)CC3)cc21 | 50 µg/mL (≈ 147 µM) | 18 µg/mL | 100 µg/mL (≈ 294 µM) | > 100 µg/mL | 25 µg/mL (≈ 73.4 µM) | 50 µg/mL (≈ 147 µM) | > 100 µg/mL |
| CCn1cc(C(=O)O)c(=O)c2cc(F)c(NCCN)nc21 | 12.5 µg/mL (≈ 42.5 µM) | 50 µg/mL | 50 µg/mL (≈ 170 µM) | > 100 µg/mL | > 100 µg/mL | 25 µg/mL (≈ 85 µM) | 25 µg/mL (≈ 85 µM) |
| CCn1cc(C(=O)O)c(=O)c2cc(F)c(Cl)cc21 | 0.8 µg/mL (≈ 2.97 µM) | 38 µg/mL | 50 µg/mL (≈ 185 µM) | 100 µg/mL (≈ 371 µM) | 3.1 µg/mL (≈ 11.5 µM) | 1.6 µg/mL (≈ 5.93 µM) | 1.6 µg/mL (≈ 5.93 µM) |
| CCn1cc(C(=O)O)c(=O)c2ccc(/C=N/N3CCN(C)CC3)nc21 | 12.5 µg/mL (≈ 36.4 µM) | 100 µg/mL | > 100 µg/mL | 100 µg/mL (≈ 291 µM) | 12.5 µg/mL (≈ 36.4 µM) | 12.5 µg/mL (≈ 36.4 µM) | 12.5 µg/mL (≈ 36.4 µM) |
| CCn1cc(C(=O)O)c(=O)c2c(N)nc(N3CCN(C)CC3)nc21 | 1.6 µg/mL (≈ 4.81 µM) | 100 µg/mL | 100 µg/mL (≈ 301 µM) | 100 µg/mL (≈ 301 µM) | 100 µg/mL (≈ 301 µM) | 3.1 µg/mL (≈ 9.33 µM) | 6.3 µg/mL (≈ 19 µM) |
| CCn1cc(C(=O)O)c(=O)c2cc(F)c(NC)cc21 | 3.1 µg/mL (≈ 11.7 µM) | 18 µg/mL | > 100 µg/mL | 100 µg/mL (≈ 378 µM) | 12.5 µg/mL (≈ 47.3 µM) | 3.1 µg/mL (≈ 11.7 µM) | 6.3 µg/mL (≈ 23.8 µM) |
| CCn1cc(C(=O)O)c(=O)c2cc(F)ccc21 | 0.8 µg/mL (≈ 3.4 µM) | 50 µg/mL | > 100 µg/mL | > 100 µg/mL | > 100 µg/mL | 25 µg/mL (≈ 106 µM) | 1.6 µg/mL (≈ 6.8 µM) |
| CCn1cc(C(=O)O)c(=O)c2cc(F)c(C)nc21 | 3.1 µg/mL (≈ 12.4 µM) | 25 µg/mL | 50 µg/mL (≈ 200 µM) | > 100 µg/mL | 25 µg/mL (≈ 99.9 µM) | 3.1 µg/mL (≈ 12.4 µM) | 6.3 µg/mL (≈ 25.2 µM) |
| CCn1cc(C(=O)O)c(=O)cc1C | > 100 µg/mL | 100 µg/mL | > 100 µg/mL | > 100 µg/mL | > 100 µg/mL | > 100 µg/mL | > 100 µg/mL |
| CCn1cc(C(=O)O)c(=O)c2cc(F)c(SCCN)cc21 | 0.8 µg/mL (≈ 2.58 µM) | 5 µg/mL | 3.1 µg/mL (≈ 9.99 µM) | 25 µg/mL (≈ 80.6 µM) | 25 µg/mL (≈ 80.6 µM) | 3.1 µg/mL (≈ 9.99 µM) | 1.6 µg/mL (≈ 5.16 µM) |
| CCn1cc(C(=O)O)c(=O)c2cc(F)c(N3CCN(CCCN(C)C)CC3)cc21 | 6.3 µg/mL (≈ 15.6 µM) | 50 µg/mL | 12.5 µg/mL (≈ 30.9 µM) | 25 µg/mL (≈ 61.8 µM) | 12.5 µg/mL (≈ 30.9 µM) | 3.1 µg/mL (≈ 7.66 µM) | 6.3 µg/mL (≈ 15.6 µM) |
| CCn1cc(C(=O)O)c(=O)cc1-c1ccc(OC)cc1 | 50 µg/mL (≈ 183 µM) | 100 µg/mL | > 100 µg/mL | > 100 µg/mL | > 100 µg/mL | > 100 µg/mL | 50 µg/mL (≈ 183 µM) |
| CCn1cc(C(=O)O)c(=O)c2cc(F)c(N3CCC(N4CCCC4)CC3)cc21 | 0.4 µg/mL (≈ 1.03 µM) | 7.5 µg/mL | 3.1 µg/mL (≈ 8 µM) | 12.5 µg/mL (≈ 32.3 µM) | 3.1 µg/mL (≈ 8 µM) | 0.1 µg/mL (≈ 0.258 µM) | 1.6 µg/mL (≈ 4.13 µM) |
